Laboratory results as given in EPA's ToxValDB 9.5 (doi:10.2903/j.efsa.2018.5307).

How the values were obtained:
[1] = system: Typhlodromus pyri; assay: LR50; higher = less toxic; conditions: acute; mortality
[2] = system: Daphnia magna; conditions: chronic/long-term; duration: 23 days; reproduction
[3] = system: Tagia sp.; conditions: chronic/long-term; reproduction
[4] = system: Cyprinus carpio; conditions: acute; duration: 96 hours; mortality
[5] = system: Oryctolagus sp.; conditions: developmental; development
[6] = system: Colinus virginianus
[7] = system: Pimephales promelas; conditions: chronic/long-term; development
[8] = system: Rattus norvegicus
[9] = system: Apis mellifera; conditions: acute, mortality

CCOP(=O)=O.CCOP(=O)=O.CCOP(=O)=O.[Al+3] [Fosetyl aluminum]
LR50 [1]: > 8400 g/ha | NOEC [2]: 10.1 mg/L | NOEC [3]: 164 mg/kg | LC50 [4]: > 100 µg/mL | NOAEL [5]: 100 mg/kg-day | LD50 ([6]; acute, oral, mortality): > 2000 mg/kg-day | NOEL ([6]; reproduction developmental): 216 mg/kg-day | NOEC [7]: 0.213 mg/L | LD50 ([8]; acute, oral, mortality): > 7080 mg/kg-day | NOAEL ([8]; reproduction developmental, body weight): 482 mg/kg-day | LD50 ([9]; dermal): > 100 µg/piece | LD50 ([9]; oral, unspecified): > 140 µg/piece
